Results: patent US20240059658A1 (Emory University, priority 2019, published 2024)

Test system: EU-1
Test: WST cytotoxicity assay, cancer cell EU-1
Format: cell-based, human
Conditions: Homo sapiens, EU-1, EU-1; no other cell line named in the cell; read-out: Cancer cell (EU-1) cytotoxicity IC50
Experimental: This study used two ALL cell lines (EU-1 and EU-3) and three NB cell lines (NB-1643, SHEP1 and LA1-55N). All 5 cancer cell lines were established from pediatric ALL or NB patients and were well-characterized for their expression of MDM2 and p53-status, as reported previously. All cell lines were grown in standard culture medium (RPMI 1640 containing 10% FBS, 2 mmol/L L-glutamine, 50 U penicillin and 50 μg/mL streptomycin) at 37° C. in a humidified atmosphere containing 5% CO2.
The cytotoxic effect of MX 69 and MX69 analogs on cancer cells was determined using the water-soluble tetrazolium salt (WST) assay. Briefly, cells cultured in 96-well microtiter plates were treated with different concentrations of AQ-101 for a 20-h period. WST (25 μg/well) was then added and incubation continued for an additional 4 h, after which optical density (OD) was read with a microplate reader (test wavelength of 450 nm; reference wavelength of 620 nm).

| SMILES | IC50 |
| --- | --- |
| Cc1ccc(NS(=O)(=O)c2ccc3c(c2)[C@H]2NCC[C@H]2[C@H](c2ccc(C(=O)C(C)C)cc2)N3)cc1C [Compound 69L82] | 29.7 µM |
| CC(=O)c1cccc(C2CC(=O)c3cc(S(=O)(=O)Nc4ccc5c(c4)OCO5)ccc3N2)c1 (stereo not shown) [Compound 69L147] | 1.16 µM |
| CC(=O)c1cccc(S(=O)(=O)Nc2ccc3c(c2)[C@H]2OCC[C@H]2C(c2ccc(C(=O)C(C)C)cc2)N3)c1 (stereo partly shown) [Compound 69L163, 3-acetyl-N-(4-(4-isobutyrylphenyl)-2,3,3a,4,5,9b-hexahydrofuro[3,2-c]quinolone-8-yl)benzenesulfonamide] | 2.5 µM |
| Cc1ccc(NS(=O)(=O)c2ccc3c(c2)C(=O)CC(c2cccc(C(=O)N(C)C)c2)N3)cc1C (stereo not shown) [Compound 69L158] | 0.63 µM |
| COC(=O)c1ccc(C2Nc3ccc(S(=O)(=O)Nc4ccc(C)c(C)c4)cc3C3NCC[C@@H]23)cc1 (stereo partly shown) [Compound 69L34] | 3.44 µM |
| Cc1ccc(NS(=O)(=O)c2ccc3c(c2)C2NCC[C@H]2[C@H](c2ccc(C(=O)O)cc2)N3)cc1C (stereo partly shown) [Compound 69L41] | > 50 µM |
| CC(=O)c1ccc(NS(=O)(=O)c2ccc3c(c2)[C@H]2OCC[C@H]2C(c2ccc(C(C)=O)cc2)N3)cc1 (stereo partly shown) [Compound 69L111] | 1.37 µM |
| Cc1ccc(NS(=O)(=O)c2ccc3c(c2)[C@H]2OCC[C@H]2C(c2ccc(C(C)C)cc2)N3)cc1C (stereo partly shown) [Compound 69L31] | 4.24 µM |
| Cc1ccc(NS(=O)(=O)c2ccc3[nH]c(-c4ccc(C(=O)C(C)C)cc4)c(I)c(=O)c3c2)cc1C [Compound 69L97] | 9.36 µM |
| COc1cc(NS(=O)(=O)c2ccc3c(c2)C(=O)CC(c2cccc(C(C)=O)c2)N3)ccc1C (stereo not shown) [Compound 69L164] | 0.71 µM |
| CC(C)C(=O)c1ccc(C2Nc3ccc(S(=O)(=O)Nc4ccc(Cl)c(Cl)c4)cc3[C@H]3OCC[C@@H]23)cc1 (stereo partly shown) [Compound 69L76] | 5.59 µM |
| Cc1ccc(NS(=O)(=O)c2ccc3c(c2)C2OCC[C@H]2[C@@H](c2c[nH]c4ccccc24)N3)cc1C (stereo partly shown) [Compound 69L36] | 9.2 µM |
| CC(=O)c1ccc(C2Nc3ccc(S(=O)(=O)Nc4cccc(C(C)=O)c4)cc3[C@H]3OCC[C@@H]23)cc1 (stereo partly shown) [Compound 69L110] | 0.27 µM |
| Cc1cc(NS(=O)(=O)c2ccc3c(c2)C2OCC[C@H]2C(C2CCCCC2)N3)ccc1C(F)(F)F (stereo partly shown) [Compound 69L90] | 3.26 µM |
| COc1cccc(NS(=O)(=O)c2ccc3c(c2)C(=O)CC(c2cccc(C(=O)C(C)C)c2)N3)c1 (stereo not shown) [Compound 69L157, 2-(3-isobutyrylphenyl)-N-(3-methoxyphenyl)-4-oxo-1,2,3,4-tetrahydroquinoline-6-sulfonamide] | 0.33 µM |
| CC(C)c1cccc(NS(=O)(=O)c2ccc3c(c2)C(=O)CC(c2cccc(C(C)C)c2)N3)c1 (stereo not shown) [Compound 69L137] | 5 µM |
| CCc1cccc(NS(=O)(=O)c2ccc3c(c2)C(=O)CC(c2cccc(C(=O)C(C)C)c2)N3)c1 (stereo not shown) [Compound 69L150, N-(3-ethylphenyl)-2-(3-isobutyrylphenyl)-4-oxo-1,2,3,4-tetrahydroquinoline-6-sulfonamide] | 0.04 µM |
| CC(C)C(=O)c1cccc(C2CC(=O)c3cc(S(=O)(=O)Nc4cccc(C(C)C)c4)ccc3N2)c1 (stereo not shown) [Compound 69L139] | 0.66 µM |
| CCC(=O)c1cccc(NS(=O)(=O)c2ccc3c(c2)C(=O)CC(c2cccc(C(C)=O)c2)N3)c1 (stereo not shown) [Compound 69L126, 2-(3-acetylphenyl)-4-oxo-N-(3-propionylphenyl)-1,2,3,4-tetrahydro-quinoline-6-sulfonamide] | 1.14 µM |

| SMILES | IC50 |
| --- | --- |
| Cc1ccc(NS(=O)(=O)c2ccc3c(c2)C2NCC[C@H]2C(c2c[nH]c4ccccc24)N3)cc1C (stereo partly shown) [Compound 69L37] | 4.81 µM |
| CCOC1C[C@@H](c2ccc(C(C)=O)cc2)Nc2ccc(S(=O)(=O)Nc3ccc(C)c(C)c3)cc21 (stereo partly shown) [Compound 69L46] | 6.5 µM |
| CC(=O)N1CCC([C@@H]2Nc3ccc(S(=O)(=O)Nc4ccc(C)c(C)c4)cc3C3OCC[C@H]32)CC1 (stereo partly shown) [Compound 69L57, 4-(1-acetylpiperidin-4-yl)-N-(3,4-dimethylphenyl)-2,3,3a,4,5,9b-hexahydrofuran[3,2-c]quinolone-8-sulfonamine] | 10.8 µM |
| Cc1ccc(NS(=O)(=O)c2ccc3c(c2)[C@H]2OCC[C@H]2C(c2ccc(B(O)O)cc2)N3)cc1C (stereo partly shown) [Compound 69L18] | 14.7 µM |
| Cc1ccc(N(C)S(=O)(=O)c2ccc3c(c2)[C@H]2OCC[C@H]2C(c2ccc(C(=O)C(C)C)cc2)N3C)cc1C (stereo in doubt) [Compound 69L131, N-(3,4-dimethylphenyl)-4-(4-isobutyrylphenyl)-N,5-dimethyl-2,3,3a,4,5,9b-hexahydrofuro[3,2-c]quinoline-8-sulfonamide] | 1.16 µM |
| CC(C)C(=O)c1ccc([C@@H]2Nc3ccc(S(=O)(=O)Nc4ccc(C(F)(F)F)c(C(F)(F)F)c4)cc3C3OCC[C@H]32)cc1 (stereo in doubt) [Compound 69L92, N-(3,4-bis(trifluoromethyl)phenyl)-4-(4-isobutyrylphenyl)-2,3,3a,4,5,9b-hexahydrofuro[3,2-c]quinoline-8-sulfonamide] | > 10 µM |
| Cc1ccc(NS(=O)(=O)c2cc3c(cc2Cl)N[C@@H](c2ccc(S(C)(=O)=O)cc2)[C@@H]2CC=C[C@H]32)cc1C [Compound 69L24] | > 50 µM |
| CC(C)C(=O)c1ccc(C2Nc3ccc(S(=O)(=O)Nc4cccc(C(C)(C)C)c4)cc3[C@H]3OCC[C@@H]23)cc1 (stereo partly shown) [Compound 69L136] | 6.16 µM |
| CN(C)c1cccc(NS(=O)(=O)c2ccc3c(c2)[C@H]2OCC[C@H]2[C@H](C2CCCCC2)N3)c1 [Compound 69L143] | 3.96 µM |
| COC(=O)c1ccc(C2Nc3ccc(S(=O)(=O)Nc4ccc(C)c(C)c4)cc3[C@H]3OCCC[C@@H]23)cc1 (stereo partly shown) [Compound 69L9] | 4.56 µM |
| Cc1ccc(NS(=O)(=O)c2ccc3c(c2)C2OCC[C@H]2[C@@H](c2ccc(C(=O)C(C)C)cc2)N3)cc1C (stereo partly shown) [Compound 69L52b] | 1.4 to 1.6 µM |
| CC(C)C(=O)c1cccc(C2CC(=O)c3cc(S(=O)(=O)Nc4cccc5c4COC5=O)ccc3N2)c1 (stereo not shown) [Compound 69L149] | 0.58 µM |
| Cc1ccc(S(=O)(=O)Nc2ccc3c(c2)[C@H]2OCC[C@H]2C(c2ccc(C(=O)C(C)C)cc2)N3)cc1C (stereo in doubt) [Compound 69L162, N-(4-(4-isobutyrylphenyl)-2,3,3a,4,5,9b-hexahydrofuro[3,2-c]quinolin-8-yl)-3,4-dimethylbenzenesulfonamide] | > 5 µM |
| COC(=O)c1ccc([C@H]2Nc3cc(Cl)c(S(=O)(=O)Nc4ccc(C)c(C)c4)cc3[C@H]3OCC[C@@H]23)cc1 [Compound 69L25] | > 50 µM |
| CC(=O)c1cccc(C2CC(=O)c3cc(S(=O)(=O)Nc4ccc5c(c4)COC5)ccc3N2)c1 (stereo not shown) [Compound 69L124, 2-(3-acetylphenyl)-N-(1,3-dihydroisobenzofuran-5-yl)-4-oxo-1,2,3,4-tetrahydroquinoline-6-sulfonamide] | 0.46 µM |
| COc1cc(NS(=O)(=O)c2ccc3c(c2)C(=O)CC(c2cccc(C(=O)C(C)C)c2)N3)ccc1C (stereo not shown) [Compound 69L160, 2-(3-isobutyrylphenyl)-N-(3-methoxy-4-methylphenyl)-4-oxo-1,2,3,4-tetrahydroquinoline-6-sulfonamide] | 0.54 µM |
| COC(=O)c1ccc([C@@H]2Nc3ccc(S(=O)(=O)Nc4ccc(C)c(C)c4)cc3[C@H]3OCC[C@H]32)cc1 [Compound 69L2] | 3.5 to 5.3 µM |
| CC(=O)c1cccc(C2CC(=O)c3cc(S(=O)(=O)Nc4cccc(C(C)C)c4)ccc3N2)c1 (stereo not shown) [Compound 69L135] | 0.15 µM |
